Assay results reported in PubChem BioAssay (NCI).
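All cell lines were grown in 96-well plates and treated with compound for 48 hours. GI50 = concentration required for 50% inhibition of growth. TGI marks complete inhibition of growth.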

How the values were obtained:
Assay in all cases: NCI-60 cell line screen, 48 h
OVCAR-4 ovarian = tested on: OVCAR-4 ovarian
MDA-MB-231 breast = tested on: MDA-MB-231 breast
NCI-H23 lung = tested on: NCI-H23 lung
786-0 renal = tested on: 786-0 renal
NCI/ADR-RES ovarian = tested on: NCI/ADR-RES ovarian
HL-60(TB) leukemia = tested on: HL-60(TB) leukemia
M14 melanoma = tested on: M14 melanoma
SW-620 colon = tested on: SW-620 colon
MCF7 breast = tested on: MCF7 breast
PC-3 prostate = tested on: PC-3 prostate
HCT-15 colon = tested on: HCT-15 colon
COLO 205 colon = tested on: COLO 205 colon
CCRF-CEM leukemia = tested on: CCRF-CEM leukemia
SF-539 CNS = tested on: SF-539 CNS
BT-549 breast = tested on: BT-549 breast
SR leukemia = tested on: SR leukemia
MOLT-4 leukemia = tested on: MOLT-4 leukemia
HS 578T breast = tested on: HS 578T breast
SK-MEL-2 melanoma = tested on: SK-MEL-2 melanoma
A498 renal = tested on: A498 renal
HCT-116 colon = tested on: HCT-116 colon
SF-268 CNS = tested on: SF-268 CNS
K-562 leukemia = tested on: K-562 leukemia
RXF 393 renal = tested on: RXF 393 renal
OVCAR-5 ovarian = tested on: OVCAR-5 ovarian
SK-MEL-5 melanoma = tested on: SK-MEL-5 melanoma
SNB-19 CNS = tested on: SNB-19 CNS
U251 CNS = tested on: U251 CNS

`COc1ccc(C(O)c2cc3c(N)c(C(=O)Nc4ccccc4)sc3nc2C)cc1` (stereo not given) was tested, and the TGI (OVCAR-4 ovarian) was > 100000 nM, the GI50 (MDA-MB-231 breast) was 72.8 nM and the TGI (MDA-MB-231 breast) was 9630 nM. For the same compound, the GI50 (NCI-H23 lung) was 75.4 nM, the TGI (NCI-H23 lung) was > 50100 nM and the GI50 (786-0 renal) was 76.3 nM. For the same compound, the TGI (786-0 renal) was 25300 nM, the GI50 (NCI/ADR-RES ovarian) was 38.1 nM and the TGI (NCI/ADR-RES ovarian) was 2020 nM. It also gave a GI50 (HL-60(TB) leukemia) of 32.4 nM, a TGI (HL-60(TB) leukemia) of 459 nM and a GI50 (M14 melanoma) of 34.9 nM. The TGI (M14 melanoma) was > 100000 nM, the GI50 (SW-620 colon) was 39.1 nM and the TGI (SW-620 colon) was > 100000 nM. The GI50 (MCF7 breast) was 34.5 nM, the TGI (MCF7 breast) was 19300 nM and the GI50 (PC-3 prostate) was 140 nM. The TGI (PC-3 prostate) was > 74300 nM, the GI50 (HCT-15 colon) was 40.3 nM and the TGI (HCT-15 colon) was > 100000 nM. It also gave a GI50 (COLO 205 colon) of 219 nM, a TGI (COLO 205 colon) of 1800 nM and a GI50 (CCRF-CEM leukemia) of 38.3 nM. The TGI (CCRF-CEM leukemia) was > 100000 nM, the GI50 (SF-539 CNS) was 34.8 nM and the TGI (SF-539 CNS) was 825 nM. It also gave a GI50 (BT-549 breast) of 186 nM, a TGI (BT-549 breast) of 36400 nM and a GI50 (SR leukemia) of 33.3 nM. The TGI (SR leukemia) was > 100000 nM, the GI50 (MOLT-4 leukemia) was 50.8 nM and the TGI (MOLT-4 leukemia) was > 100000 nM. The GI50 (HS 578T breast) was 30.5 nM, the TGI (HS 578T breast) was 3010 nM and the GI50 (SK-MEL-2 melanoma) was 238 nM. The TGI (SK-MEL-2 melanoma) was > 100000 nM, the GI50 (A498 renal) was 26.2 nM and the TGI (A498 renal) was 2790 nM. For the same compound, the GI50 (HCT-116 colon) was 42.5 nM, the TGI (HCT-116 colon) was > 35400 nM and the GI50 (SF-268 CNS) was 174 nM. For the same compound, the TGI (SF-268 CNS) was > 70000 nM, the GI50 (K-562 leukemia) was 38.2 nM and the TGI (K-562 leukemia) was > 100000 nM. The GI50 (RXF 393 renal) was 28.6 nM, the TGI (RXF 393 renal) was 911 nM and the GI50 (OVCAR-5 ovarian) was 71.4 nM. The TGI (OVCAR-5 ovarian) was 25400 nM, the GI50 (SK-MEL-5 melanoma) was 35.9 nM and the TGI (SK-MEL-5 melanoma) was 591 nM. For the same compound, the GI50 (SNB-19 CNS) was 44.3 nM, the TGI (SNB-19 CNS) was 20400 nM and the GI50 (U251 CNS) was 42.5 nM. It also gave a TGI (U251 CNS) of 29700 nM.
